One assay concerns Raji cells. The assay can be described thus: Cytotoxicity, Cell Titer-Glo, Raji cells. Format: cell-based. Particulars: Homo sapiens, 24 hours incubation, read-out: Raji cells IC50 (cell death). As to the method: (§1) The raji (ATCC), raw (ATCC) and PBMCs cells were suspended in buffer (RPMI 1640 complete medium containing 10% FBS, SIGMA), respectively, and the cell density was counted. The cells were transferred to wells of a 96-well plate, ensuring that the cell density of each well was 1×10^4 cells/well, and incubated for 24 hours at 37° C., 5% CO2 with compounds at different concentrations (100 μM, 50 μM, 25 μM, 12.5 μM, 6.25 μM and 3.125 μM) and buffer control solution (0.2% DMSO). To each well, 100 μL of Cell Titer-Glo Luminescent Solution (Promega) was added and shaken for 10 minutes at room temperature, and then GloMax® Navigator System was used to measure the system […], and the cell death rate was calculated. Cell death rate (%)=(1−RLUcompound/RLUcontrol)×100%, and IC50 was determined from the inhibition curve.

Assay [1] deals with Human peripheral blood mononuclear cells (PBMCs). The assay can be described thus: Promotion of IFN-γ secretion in PBMCs treated with anti-CD3/anti-CD28 and PDL1/FC fusion protein (ELISA). The format is cell-based. Particulars: for IFN-γ / Increase rate of IFN-γ expression vs PDL1 treatment: hPD-L1 10.0 μg/mL, 72 h; for effect on promoting IFN-γ secretion at the cellular level: in words, better than that of BMS202. The procedure: Human peripheral blood mononuclear cells (PBMCs) were isolated from 10-15 ml of whole blood of healthy volunteers using experimental human lymphocyte separation medium (TBD sciences). The cells were washed twice with normal saline and resuspended in buffer (RPMI 1640 complete medium containing 10% FBS, SIGMA) to count the cell density. The PBMCs were dispersed and placed in a 96-well plate, 1×10^5 cells and 50 μL of buffer per well. Anti-CD3 antibody (SIGMA) and anti-CD28 antibody (SIGMA) were mixed at a ratio of 1:1 to obtain an antibody mixture. The antibody mixture was added to the wells to ensure that the final concentration of antibody was 0.8 μg/mL. At the same time, PDL1/FC fusion protein (SINO BIOLOGICAL) was added to reach a final concentration of 10.0 μg/mL, and the compound to be tested was diluted with buffer and added to the wells to reach a final concentration of 0.1 μM or 1 μM. The mixed system was incubated at 37° C. and 5% CO2 for 72 h. The supernatant was collected, and the expression level of IFN-γ was measured by ELISA MAXTM Human IFN-γ Standard Kit (BioLegend), and the increase rate was calculated. Increase rate (%)=(expression amount of compound treatment−expression amount of PDL1 treatment)/expression amount of PDL1 treatment×100%
On the technique in general: ELISA stands for enzyme-linked immunosorbent assay.

Assay [2] relates to colon cancer cell line MC38 (mouse PD-L1 knockout, human PD-L1 knockin). The assay can be described thus: Antitumor efficacy in vivo in PD-1 humanized mice inoculated with PD-L1 humanized MC38 cells. Particulars: 15 mg/kg intraperitoneal injection once per day for three weeks, compared with the control group. An excerpt:
Based on the mechanism that PD-1/PD-L1 inhibitors activated the immune system to achieve anti-tumor effects by interfering with the interaction of PD-1/PD-L1, the animal models used in vivo efficacy experiments must be animals with healthy immune systems; in addition, the species differences of PD-1/PD-L1 between animals and humans are considered. Therefore, the in vivo antitumor pharmacodynamics evaluation model of the present invention adopted PD-1 humanized mice, and the inoculated tumors were PD-L1 humanized tumor cells. This evaluation model could more accurately reflect the in vivo efficacy of the compound.
24 PD-1 humanized mice (full name of strain: C57BL/6J-Pdcd1^em1(hPDCD1)/Smoc) about 6 weeks old were purchased from Shanghai Southern Model Animal Center, and placed in SPF grade animal breeding room for observation for 1 to 2 weeks. After the animals were adapted to the raising environment, the genetically engineered colon cancer cell line MC38 (mouse PD-L1 knockout, human PD-L1 knockin) was subcutaneously inoculated to the mice near the hind leg groin, and the inoculated cell volume was 1×10^6 cells per mouse. […] During the experiment, the tumor size and mouse body weight were measured and recorded, and the mice were sacrificed at the end of the experiment. […]

For another assay, the system named is PBMCs cells. Description: Cytotoxicity, Cell Titer-Glo, PBMCs cells. Particulars: Homo sapiens, PBMC; 24 hours incubation; read-out: PBMCs cells IC50 (cell death). The format is cell-based. The procedure: as §1
In general terms: Cellular ATP, detected with luciferase, serves as a proxy for viable cell number.

The target in the next assay is human PD-L1 (Homo sapiens (Human), UniProt Q9NZQ7). Description: Biofilm interferometry (BLI, OctetRED) binding to human PD-L1/AVI. Particulars: 1:1 binding model; for koff: read-out: Kdis. The procedure: In the experiment, the instrument OctectRED of Fortebio Company based on biofilm interferometry (BLI) technology was used to capture human PD-L1/AVI with SA chips. The concentration of antigen PD-L1/AVI was diluted to 10 μg/mL with running buffer (PBS+0.02% Tween-20+2% DMSO), and the loading time was 300 s; similarly, the analyte was also diluted to the corresponding concentrations (20 nM, 10 nM, 5 nM, 2.5 nM, 1.25 nM, 0.625 nM, 0.3125 nM) with running buffer in gradient manner, and a buffer blank control group was set at the same time. The binding time of human PD-L1/AVI to the analyte was 180 s, and the dissociation time was 300 s; the chip was regenerated with 10 mM glycine HCl, pH 1.7 solution and repeated 5-second pulse for 3 times. The data were fitted to a 1:1 binding model to determine the equilibrium dissociation constant KD.

The next assay concerns Raw cells. The assay can be described thus: Cytotoxicity, Cell Titer-Glo, Raw cells. Format: cell-based. Particulars: 24 hours incubation; read-out: Raw cells IC50 (cell death). The procedure: as §1
In the next assay the target is PD-1/PD-L1 interaction (Homo sapiens (Human), UniProt Q9NZQ7). Description: PD-1/PD-L1 Binding Assay kit (Cisbio), HTRF. Particulars: 8-10 concentrations, read-out: IC50 of inhibition of PD-1/PD-L1 interaction. (In general: In TR-FRET formats the signal depends on donor and acceptor labels being close together.)

Bounds are passed on as bounds.

Chain of human PD-L1 (Q9NZQ7 19-290): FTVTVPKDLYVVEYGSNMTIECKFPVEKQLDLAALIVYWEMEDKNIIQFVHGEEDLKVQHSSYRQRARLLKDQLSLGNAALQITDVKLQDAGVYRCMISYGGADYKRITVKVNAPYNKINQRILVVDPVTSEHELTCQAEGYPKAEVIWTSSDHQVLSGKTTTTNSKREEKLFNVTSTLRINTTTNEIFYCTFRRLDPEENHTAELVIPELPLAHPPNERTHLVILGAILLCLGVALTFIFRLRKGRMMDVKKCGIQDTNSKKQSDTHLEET
Chain of PD-1/PD-L1 interaction (Q9NZQ7 19-238): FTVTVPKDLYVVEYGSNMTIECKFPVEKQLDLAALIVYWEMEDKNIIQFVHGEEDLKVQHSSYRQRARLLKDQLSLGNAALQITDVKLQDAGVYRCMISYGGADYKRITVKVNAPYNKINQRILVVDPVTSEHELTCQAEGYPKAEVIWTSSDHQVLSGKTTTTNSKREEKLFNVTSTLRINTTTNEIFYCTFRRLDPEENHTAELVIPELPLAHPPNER

For the compound `Cc1cc(CN[C@H](CO)C(=O)O)c(OCc2cncc(C#N)c2)cc1NCc1cccc(-c2ccccc2)c1C` [Compound 5], the IC50 was greater than 100 µM in the assay with Raji cells, greater than 100 µM in the assay with PBMCs cells, greater than 100 µM with Raw cells and 12 nM at PD-1/PD-L1 interaction. The IFN-γ in assay [1] (compound 0.1 μM) worked out at 38300 pg/mL; in assay [1] (compound 1.0 μM), 42400 pg/mL. Further, the “Increase rate of IFN-γ expression vs PDL1 treatment” value is recorded as 79.8% in assay [1] (compound 0.1 μM) and 99.1% in assay [1] (compound 1.0 μM). The “effect on promoting IFN-γ secretion at the cellular level” value in assay [1] is given as “significant effect on promoting IFN-γ secretion”. Moreover, in assay [2], the growth of tumors entry is “significantly inhibit the growth of tumors”. In addition, the Kd on human PD-L1 was found to be 0.0162 nM. For the same compound, the kon at human PD-L1 was 2.17e+06 M⁻¹ s⁻¹. Moreover, on human PD-L1, the koff is 3.53e-05 s⁻¹.

As to `Cc1c(CNc2ccc(CN[C@H](CO)C(=O)O)c(OCc3cncc(C#N)c3)c2)cccc1-c1ccccc1` [Compound 10], the IC50 with Raji cells was greater than 100 µM; in the assay with PBMCs cells, greater than 100 µM; with Raw cells, greater than 100 µM; on PD-1/PD-L1 interaction, 38 nM. Also, the IFN-γ in assay [1] (compound 0.1 μM) came to 37700 pg/mL; in assay [1] (compound 1.0 μM), 41500 pg/mL. The “Increase rate of IFN-γ expression vs PDL1 treatment” value in assay [1] (compound 0.1 μM) worked out at 77.0%; in assay [1] (compound 1.0 μM) it was 94.8%. Moreover, the “effect on promoting IFN-γ secretion at the cellular level” value in assay [1] is given as “significant effect on promoting IFN-γ secretion”. Further, binding on human PD-L1 was put at a Kd of 0.296 nM. In addition, the kon at human PD-L1 came to 849000 M⁻¹ s⁻¹. The koff at human PD-L1 came to 0.000251 s⁻¹.

The Kd is the concentration at which binding is half-saturated. The low end stands for tighter binding, the high end for weaker binding. As a reminder, the kon is the rate constant with which the complex forms.
